Reference: US20140154180A1, “Pharmacophores for Amyloid Fibers Involved in Alzheimer's Disease” (The Regents of the University of California, priority 2011, published 2014)
Entries after “also recorded” stand apart in the source; their conditions may differ.

What was measured:
[1] = test system: Aβ toxicity to PC12 cells; assay: MTT cell viability assay, rescue from Abeta toxicity, PC12 cells; format: cell-based; conditions: Table 7; scaled cell survival rate, buffer-treated cell 100%, Abeta-treated cell 0%; Abeta 0.5 μM; 12 h incubation
Description: (§1) We tested candidate compounds by the MTT-based cell proliferation/viability assay, as described on the ATCC web site. Briefly, the ATCC MTT Cell Proliferation Assay quantitates the reduction of the yellow tetrazolium salt (MTT) in response to an external factor, such as treatment with a compound of the present invention, as a measure of a cell population's response to the external factor. The assay measures the cell proliferation rate and conversely, when metabolic events lead to apoptosis or necrosis, the reduction in cell viability. In our tests, Hela and PC12 cell lines were used to assess the toxic effect of Abeta protein. Abeta at 0.5 μM was a positive control. The small molecule inhibitors were added to samples with different concentrations (such as 2.5 μM). After 12 h incubation at room temperature, the absorbance of reduced MIT was measured at 570 nm. Each of the experiments was repeated 3 times with 4 replicates per sample per concentration. Our MTT cell viability assay quantified the percentage of survival cells upon the treatment of the mixture of Abeta and compound inhibitors. The rescuing percentage of each compound was calculated by normalizing the survival percentage using the buffer-treated cell as 100% viability and Abeta-treated cell as 0% viability.

[2] = test system: Aβ toxicity to Hela cells; assay: MTT cell viability assay, rescue from Abeta toxicity, Hela cells; format: cell-based; conditions: Table 7; scaled cell survival rate, buffer-treated cell 100%, Abeta-treated cell 0%; Abeta 0.5 μM; 12 h incubation
Description: as §1

Aβ fibrillation = Aβ fibrillation (Homo sapiens, UniProt P05067); assay: Electron microscopy (EM) of Aβ with BAF compounds; conditions: Aβ with compound right before adding to the cell medium
Chain of Aβ fibrillation (P05067 672-713): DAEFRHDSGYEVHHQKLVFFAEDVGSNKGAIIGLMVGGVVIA

[3] = biological target: T1, KLVFFA (SEQ ID NO: 1) fibers (Homo sapiens, UniProt P05067); assay: 1H NMR titration with KLVFFA fibers; format: binding; conditions: compound 100 μM, increasing KLVFFA fiber concentrations, 283 K; read-out: apparent dissociation constant (Kd)
T1 construct: host or cells: chemically synthesized peptide
Method: As a validation of our computational approach, we used nuclear magnetic resonance (NMR) to characterize the interactions between our BAF compounds and KLVFFA (SEQ ID NO: 1) and Aβ fibers.
NMR samples contained 550 μL of designed compounds were added from 1 mM stocks in H2O to a final concentration of 100 μM. Fibrillar KLVFFA (SEQ ID NO: 1) and Abeta were added at the indicated concentrations. 500 MHz ^1H NMR spectra were collected on a Bruker DRX500 at 283 K. H2O resonance was suppressed through presaturation. Spectra were processed with XWINNMR 3.6.

[4] = biological target: T2, VQIVYK (SEQ ID NO: 2) segment from the tau protein (Homo sapiens, UniProt P10636); assay: LC-MSMS analysis of co-crystals, molar ratio, VQIVYK
T2 construct: host or cells: chemically synthesized peptide
Description: Liquid chromatography tandem mass spectrometry (LC-MSMS) was used to measure the molar ratios of the peptide segments and the small molecules within the crystals. Authentic samples of the peptides and each of the small molecules were used to prepare standard response curves. Crystals from each of the four mixtures of peptides and small compounds were individually picked (using a sharpened glass capillary) and re-dissolved in 5%-10% acetonitrile. The samples were divided into two aliquots, one for the peptide analyses and the other for the small molecule analyses, and the amount of each component in the samples was interpolated using the standard curves.
Peptide standards (dry powder of VQIVYK (SEQ ID NO: 2) and KLVFFA (SEQ ID NO: 1)) were dissolved in water and prepared in concentrations ranging from 0.05 μM to 0.01 mM in 0.1% TFA. […] Data were collected in the positive ion multiple reaction monitoring (MRM) mode in which the intensity of specific parent→fragment ion transitions were recorded (VQIVYK (SEQ ID NO: 2), m/z 749.5→341.3, 749.5→409.4, 749.5→440.3, 749.5→522.5; KLVFFA (SEQ ID NO: 1), 724.4→84, 724.4→488.3, 362.7→84, 362.7→120.1). […]

[5] = test system: Aβ toxicity to Hela and PC12 cell lines; assay: MTT cell viability assay, Abeta toxicity, cell line not given; format: cell-based; conditions: FIG. 17B
Description: as §1

Structure (SMILES) | Rescuing Percentage PC12 [1] [%] | Rescuing Percentage Hela [2] [%] | inhibition of Aβ fibrillation (EM) (Aβ fibrillation) | Kd [3] [µM] | VQIVYK segments for each small molecule [4] | dose dependence of reduction of Aβ cytotoxicity [5]
O=C1OC2(c3ccccc31)c1cc(Br)c(O)c(Br)c1Oc1c2cc(Br)c(O)c1Br [BAF1] | 44.3 | 41.3 | do not inhibit Aβ fibrillation | ~12 |  | 
COc1cc(/C=C/C(=O)CC(=O)/C=C/c2ccc(O)c(OC)c2)ccc1O [curcumin, Curcumin] |  |  |  |  | ~100 | 
Cc1ccc(O)c(N=Nc2c(O)cc(S(=O)(=O)O)c3ccccc23)c1 [BAF8] | 25.1 | 27.1 | do not inhibit Aβ fibrillation | ~24 |  | 
O=S(=O)(O)c1cc(S(=O)(=O)O)c2c(/N=N/c3ccccc3)c(O)ccc2c1 [Orange-G, reference compound] |  |  |  | ~43 |  | 
CC(=C(C#N)C#N)c1ccc2cc(N(C)C)ccc2c1 [DDNP, 1,1-Dicyano-2-[6-(dimethylamino)naphthalen-2-yl]propene] |  |  |  |  | ~400 | 
CCCN1CCc2cc(O)cc3c2C1Cc1ccc(O)c(O)c1-3 (centres unmarked) [BAF31] | 92.6 | 83.0 | do not inhibit Aβ fibrillation |  |  | reduce Aβ cytotoxicity in a dose dependent manner; also recorded: reduce Aβ cyto-toxicity in a dose dependent manner
O=c1c(O)c(-c2cc(O)c(O)c(O)c2)oc2cc(O)cc(O)c12 [BAF26] | 85.5 | 51.4 |  |  |  | 
